Data published in patent publication US20050070594A1, “Use of angiotensin II receptor antagonists” (Boehringer Ingelheim International GmbH, priority 2003, published 2005).

Assays:
[1] = target: T1, human PPARgamma-ligand binding domain (LBD) (Homo sapiens, UniProt P37231); assay: SPA assay: displacement of 3H-labelled rosiglitazone from GST-PPARgamma-LBD; settings: NSB 217, Bmax 911
T1 sequence (P37231 205-505): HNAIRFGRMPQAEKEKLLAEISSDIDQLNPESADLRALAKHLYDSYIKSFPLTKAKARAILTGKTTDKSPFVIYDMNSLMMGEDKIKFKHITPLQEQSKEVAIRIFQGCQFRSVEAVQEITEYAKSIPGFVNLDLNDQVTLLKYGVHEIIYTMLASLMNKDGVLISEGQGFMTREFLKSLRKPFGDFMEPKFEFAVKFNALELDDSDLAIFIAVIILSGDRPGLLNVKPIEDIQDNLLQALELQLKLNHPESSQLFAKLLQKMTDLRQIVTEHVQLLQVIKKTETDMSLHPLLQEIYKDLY
T1 sequence (P19793 220-461 partner limits assumed): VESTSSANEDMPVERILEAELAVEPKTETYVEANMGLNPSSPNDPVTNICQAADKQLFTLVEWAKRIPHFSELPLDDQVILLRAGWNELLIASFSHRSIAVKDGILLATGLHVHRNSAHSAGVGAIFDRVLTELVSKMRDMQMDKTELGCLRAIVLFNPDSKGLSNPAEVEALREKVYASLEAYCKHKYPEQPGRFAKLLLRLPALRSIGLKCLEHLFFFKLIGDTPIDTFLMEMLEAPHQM
Protocol: Protein containing the human PPARgamma-ligand binding domain (LBD) is prepared as a GST fusion protein in E.coli and purified by affinity chromatography. To do this, a DNA section which codes for the amino acids 205-505 of the human PPARgamma2 transcription factor (cf. Genbank entry U79012) is subcloned via the additionally introduced restriction cutting sites BamH I and Xho I into the expression vector pGEX-4T-1 (Amersham) and the sequence of the section is monitored. […] The bacteria are pelleted after the induction and frozen in batches in PBS, pH 7.4. After opening up in a French Press, the dissolved GST-PPARgamma-LBD-fusion protein is purified using a GSTrap column (Pharmacia). Elution is carried out by the addition of 20 mM reduced glutathione. The GST-PPARgamma-LBD-protein fractions are desalinated using a HiTrap desalting column (Pharmacia) and the protein concentration is determined using a standard assay. Protein containing the human RXRalpha ligand binding domain (LBD) is prepared as a His tag fusion protein in E.coli and purified by affinity chromatography. To do this a DNA section which codes for the amino acids 220-461 of the human RXRalpha transcription factor (cf. Genbank entry NM_002957, nt 729-1457) is subcloned via the additionally introduced restriction cutting sites BamH I and Not I into the expression vector pET28c (Novagen) and the sequence of the section is monitored. […] The bacteria are pelleted after the expression and frozen in batches in PBS, pH 7.4. After opening up in a French Press, the dissolved His-RXRalpha-LBD-fusion protein is purified using a HiTrap chelating column (Pharmacia). Elution is carried out using a 500 mM imidazole step. The His-RXRalpha-LBD protein fractions are desalinated using a HiTrap desalting column (Pharmacia) and the protein concentration is determined using a standard assay. A description of the SPA assay format can be found in Mukheriee R et al., J Steroid Biochem Mol Biol (2002) 81:217-225.

PPARgamma = assay: Transcription reporter assay (PPRE-luciferase) in 3T3-L1 adipocytes; assay type: cell-based, mouse; settings: 10 μmol/L, 24 hours
Protocol: 3T3-L1 adipocytes (day 4) or PC12W cells are transfected with Lipofectamine 2000 (Invitrogen) in the presence of 1 μg (for 3T3-L1 cells) or 50 ng (for PC12W cells) of a reporter construct, PPARgamma2 and RXRalpha expression vectors and 10 ng of a Renilla Luciferase Reporter control vector. The reporter construct is a fusion of 3xAcyl-CoA oxidase PPAR Response Element (PPRE) with Tk-luciferase. […] The Luciferase Reporter control vector is the plasmid pRL-CMV (Promega).

CCCc1nc2c(C)cc(-c3nc4ccccc4n3C)cc2n1Cc1ccc(-c2ccccc2C(=O)O)cc1 [telmisartan]
SPA signal, bound 3H-rosiglitazone (MW) ([1]; 1.00E−04 M test substance): 545
SPA signal, bound 3H-rosiglitazone (MW) ([1]; 1.00E−05 M test substance): 703
SPA signal, bound 3H-rosiglitazone (MW) ([1]; 1.00E−06 M test substance): 818
SPA signal, bound 3H-rosiglitazone (MW) ([1]; 1.00E−07 M test substance): 837
SPA signal, bound 3H-rosiglitazone (MW) ([1]; 3.00E−05 M test substance): 691
SPA signal, bound 3H-rosiglitazone (MW) ([1]; 3.00E−06 M test substance): 818
SPA signal, bound 3H-rosiglitazone (MW) ([1]; 3.00E−07 M test substance): 802
induction of the transcriptional activity of PPARgamma, factor (PPARgamma): 3.4±0.9
